Test results published in PubChem BioAssay AID1963964 (Molecular Pharmacology Branch, DTP, NCI, 2024).

Test system: 997726-040-R-J2-PDC tumor spheroids, viability
Assay: Anticancer human tumor 997726-040-R-J2-PDC patient-derived squamous cell lung carcinoma cell line growth inhibition [PI3K]
Settings: spheroids with HUVEC and MSC; for IC50: curve of first compound; for viability, T/C: stronger effect = lower value
In short: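 Targeted small molecules plus PI3K inhibitors, half-log dose series from Cmax (default top 10 microM), were applied to heterotypic spheroids of cancer cells with HUVEC and MSCs. Viability indicated growth inhibition.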
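Further: spheroids exposed to compounds for seven days before readout.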

IC50 (second compound 0.00316 µM): > 10000 nM
IC50 (second compound 0.01 µM): > 10000 nM
IC50 (second compound 0.0316 µM): < 31.6 nM
IC50 (second compound 0.1 µM): < 31.6 nM
IC50 (second compound 0.316 µM): < 31.6 nM
IC50 (second compound 1 µM): < 31.6 nM
SMILES: CNC(=O)c1ccc(N2C(=S)N(c3ccc(C#N)c(C(F)(F)F)c3)C(=O)C2(C)C)cc1F + COc1c(OCCCN2CCOCC2)ccc2c3n(c(=NC(=O)c4cnc(N)nc4)nc12)CCN3
viability, T/C (second compound 0.00316 µM, first compound 0.0316 µM): 73.4%
viability, T/C (second compound 0.00316 µM, first compound 0.1 µM): 81.8%
viability, T/C (second compound 0.00316 µM, first compound 0.316 µM): 70.3%
viability, T/C (second compound 0.00316 µM, first compound 1 µM): 76.1%
viability, T/C (second compound 0.00316 µM, first compound 3.16 µM): 77.7%
viability, T/C (second compound 0.00316 µM, first compound 10 µM): 68.2%
viability, T/C (second compound 0.01 µM, first compound 0.0316 µM): 66.2%
viability, T/C (second compound 0.01 µM, first compound 0.1 µM): 61.2%
viability, T/C (second compound 0.01 µM, first compound 0.316 µM): 54.8%
viability, T/C (second compound 0.01 µM, first compound 1 µM): 54.8%
viability, T/C (second compound 0.01 µM, first compound 3.16 µM): 56.4%
viability, T/C (second compound 0.01 µM, first compound 10 µM): 50%
viability, T/C (second compound 0.0316 µM, first compound 0.0316 µM): 38.2%
viability, T/C (second compound 0.0316 µM, first compound 0.1 µM): 40.2%
viability, T/C (second compound 0.0316 µM, first compound 0.316 µM): 35.9%
viability, T/C (second compound 0.0316 µM, first compound 1 µM): 36.6%
viability, T/C (second compound 0.0316 µM, first compound 3.16 µM): 31.1%
viability, T/C (second compound 0.0316 µM, first compound 10 µM): 30.9%
viability, T/C (second compound 0.1 µM, first compound 0.0316 µM): 24.3%
viability, T/C (second compound 0.1 µM, first compound 0.1 µM): 27.4%
viability, T/C (second compound 0.1 µM, first compound 0.316 µM): 21.6%
viability, T/C (second compound 0.1 µM, first compound 1 µM): 24.9%
viability, T/C (second compound 0.1 µM, first compound 3.16 µM): 20.5%
viability, T/C (second compound 0.1 µM, first compound 10 µM): 22.4%
viability, T/C (second compound 0.316 µM, first compound 0.0316 µM): 5.92%
viability, T/C (second compound 0.316 µM, first compound 0.1 µM): 6.55%
viability, T/C (second compound 0.316 µM, first compound 0.316 µM): 5.84%
viability, T/C (second compound 0.316 µM, first compound 1 µM): 6.05%
viability, T/C (second compound 0.316 µM, first compound 3.16 µM): 6.82%
viability, T/C (second compound 0.316 µM, first compound 10 µM): 4.31%
viability, T/C (second compound 1 µM, first compound 0.0316 µM): 1.55%
viability, T/C (second compound 1 µM, first compound 0.1 µM): 1.44%
viability, T/C (second compound 1 µM, first compound 0.316 µM): 1.25%
viability, T/C (second compound 1 µM, first compound 1 µM): 1.13%
viability, T/C (second compound 1 µM, first compound 3.16 µM): 1.39%
viability, T/C (second compound 1 µM, first compound 10 µM): 1.47%
